Laboratory results: patent US7414041B2 (Trustees Of Tufts College, priority 1991, dated 2008)
Where two headings read alike, the source gives them in different places.

Legend:
[1] = test system: E. coli Class β Tc^r (DI-209); type: cell-based
[2] = test system: E. coli Class A Tc^r (DI-299); type: cell-based
[3] = test system: E. faecalis Tc^s (ATCC9790r); test: susceptibility testing MIC/MLC, drug alone; type: cell-based
[4] = test system: E. faecalis Tc^r (L) (ATCC9790r/Tet L); type: cell-based; details: for MIC: Tc^r (L), 1st column
E. faecalis (Tet M) = details: E. faecalis (Class M)
[5] = test system: E. coli Tc^s (MI 300-225); test: susceptibility testing MIC/MLC, drug alone; type: cell-based; details: Tc^s
[6] = test system: E. faecalis Tc^r (M) (ATCC9790r/Tet M); type: cell-based; details: 1st column
S. aureus Tc^s (RN450) = test: susceptibility testing MIC/MLC, drug alone; type: cell-based; details: for MLC: kills 99.9%
S. aureus Tc^r (RN4250) = type: cell-based; details: resistant S. aureus
[7] = biological target: T1, TET proteins responsible for tetracycline efflux (Class B tetracycline resistance determinant, strain D1-209) (Escherichia coli, UniProt P02980); test: biochemical; parameters: species or system E. coli
T1 construct: Everted vesicles, to which the TET proteins responsible for tetracycline efflux are attached; endogenous in cells; host or cells: E. coli strain D1-209 (everted membrane vesicles)
T1 sequence (P02980 whole entry): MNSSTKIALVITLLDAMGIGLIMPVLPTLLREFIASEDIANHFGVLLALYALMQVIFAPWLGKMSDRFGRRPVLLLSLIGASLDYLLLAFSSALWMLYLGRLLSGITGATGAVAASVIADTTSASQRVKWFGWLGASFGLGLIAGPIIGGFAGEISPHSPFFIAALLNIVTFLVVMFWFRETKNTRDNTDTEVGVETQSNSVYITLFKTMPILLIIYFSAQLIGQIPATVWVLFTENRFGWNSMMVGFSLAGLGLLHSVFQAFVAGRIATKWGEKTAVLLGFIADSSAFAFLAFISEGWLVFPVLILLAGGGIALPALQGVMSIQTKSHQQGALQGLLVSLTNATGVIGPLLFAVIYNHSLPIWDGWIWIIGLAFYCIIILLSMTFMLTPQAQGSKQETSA

E. faecalis ATCC 9790 = test: MIC of tetracycline susceptible strains, C5 esters; type: cell-based; details: Enterococcus faecalis, ATCC9790; E. faecalis ATCC 9790, alone; read-out: MIC
S. aureus 450 = test: MIC of tetracycline susceptible strains, C5 esters; type: cell-based; details: Staphylococcus aureus; S. aureus 450, alone; read-out: MIC
E. coli ML308 = test: MIC of tetracycline susceptible strains, C5 esters; type: cell-based; details: Escherichia coli; E. coli ML308, alone; read-out: MIC
E. coli D1-299 (Tet A) = type: cell-based;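 further: E. coli at roughly 5×10^5 cells/ml in L broth, analog and doxycycline alone or mixed in two-fold dilutions from 50 to under 1 µg/ml, 18 h at 37 °C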
E. faecalis 211 (Tet M) = test: MIC/MLC chart, analog with and without doxycycline; type: cell-based;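 further: broth checkerboard of two-fold drug dilutions, alone and mixed with doxycycline, bacteria near 5×10^5 cells/ml, 18 h incubation at 37 °C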
[8] = analog .195 μg/ml + doxycycline 1.56 μg/ml
[9] = analog .195 μg/ml + doxycycline 3.12 μg/ml
[10] = analog .195 μg/ml + doxycycline 6.25 μg/ml
[11] = analog .39 μg/ml + doxycycline 1.56 μg/ml
[12] = analog .39 μg/ml + doxycycline 3.12 μg/ml
[13] = analog alone .195 μg/ml (Analog Control)
[14] = analog alone .39 μg/ml (Analog Control)

6-deoxy-13-(benzyl mercapto) tetracycline
MIC ([1]; 1st column): 30 ± 0.26 µg
MIC ([1]; 2nd column): 60 ± 10 µg
MIC ([2]; 1st column): 46 ± 20 µg
MIC ([2]; 2nd column): 160 ± 60 µg
MIC ([3]; 1st column): 0.6 ± 0.25 µg
MIC ([3]; 2nd column): 8 ± 0.26 µg
MLC ([4]; E. faecalis Tet L): 8 ± 2 µg/mL
MIC [4]: 0.76 ± 0.26 µg
synergistic activity with tetracycline (E. faecalis (Tet M)): little, if any synergistic activity
MIC ([5]; 1st column): 16 ± 6 µg
MIC ([5]; 2nd column): 26 ± 6 µg
MIC [6]: 3.6 ± 1 µg
MIC (S. aureus Tc^s (RN450)): 0.2 ± 0.1 µg
MLC (S. aureus Tc^s (RN450)): 10 ± 2 µg

6-deoxy-13-(cyclopentyl mercapto) tetracycline
MIC ([1]; 1st column): 60 ± 40 µg
MIC ([1]; 2nd column): 100 ± 60 µg
MIC ([2]; 1st column): 40 ± 0.26 µg
MIC ([2]; 2nd column): 60 µg
MIC ([3]; 1st column): 1 ± 0.26 µg
MIC ([3]; 2nd column): 10 ± 4 µg
MIC [4]: 1 ± 0.6 µg
MLC (S. aureus Tc^r (RN4250)): 6 ± 2 µg/mL
synergistic activity with tetracycline (E. faecalis (Tet M)): little, if any synergistic activity
MIC ([5]; 1st column): 20 µg
MIC ([5]; 2nd column): 60 µg
MIC [6]: 3 ± 1 µg
MIC (S. aureus Tc^s (RN450)): 1 µg
MLC (S. aureus Tc^s (RN450)): 5 µg

CCC(=O)OC1C2C(=C(O)C3(O)C(=O)C(C(N)=O)=C(O)C(N(C)C)C13)C(=O)c1c(O)cccc1C2CSC1CCCC1 (centres unmarked) [Cmpd 5, 13-cyclopentylthio-5-proprionate-6-deoxy tetracycline]
IC50 [7]: 3.3 µM
MIC (E. faecalis ATCC 9790): 0.4 µg/mL
MIC (S. aureus 450): 0.4 µg/mL
MIC (E. coli ML308): 20 µg/mL
MIC/MLC chart: growth or killing (E. coli D1-299 (Tet A); analog 1.56 μg/ml + doxycycline 1.55 μg/ml): +
MIC/MLC chart: growth or killing (E. coli D1-299 (Tet A); analog 1.56 μg/ml + doxycycline 3.1 μg/ml): +
MIC/MLC chart: growth or killing (E. coli D1-299 (Tet A); analog 1.56 μg/ml + doxycycline 6.2 μg/ml): +
MIC/MLC chart: growth or killing (E. coli D1-299 (Tet A); analog 3.12 μg/ml + doxycycline 1.53 μg/ml): +
MIC/MLC chart: growth or killing (E. coli D1-299 (Tet A); analog 3.12 μg/ml + doxycycline 3.05 μg/ml): +
MIC/MLC chart: growth or killing (E. coli D1-299 (Tet A); analog 3.12 μg/ml + doxycycline 6.1 μg/ml): +
MIC/MLC chart: growth or killing (E. coli D1-299 (Tet A); analog 6.25 μg/ml + doxycycline 3.0 μg/ml): +
MIC/MLC chart: growth or killing (E. coli D1-299 (Tet A); analog 6.25 μg/ml + doxycycline […]): +
MIC/MLC chart: growth or killing (E. coli D1-299 (Tet A); analog 12.5 μg/ml + doxycycline 2.8 μg/ml): +
MIC/MLC chart: growth or killing (E. coli D1-299 (Tet A); analog 12.5 μg/ml + doxycycline […]): +
MIC/MLC chart: growth or killing (E. coli D1-299 (Tet A); analog 25 μg/ml + doxycycline 2.4 μg/ml): +
MIC/MLC chart: growth or killing (E. coli D1-299 (Tet A); analog 25 μg/ml + doxycycline […]): +
MIC/MLC chart: growth or killing (E. coli D1-299 (Tet A); analog 50 μg/ml + doxycycline 1.56 μg/ml): +
MIC/MLC chart: growth or killing (E. coli D1-299 (Tet A); analog 50 μg/ml + doxycycline .78 μg/ml): +
MIC/MLC chart: growth or killing (E. coli D1-299 (Tet A); [8]): +
MIC/MLC chart: growth or killing (E. coli D1-299 (Tet A); [9]): +
MIC/MLC chart: growth or killing (E. coli D1-299 (Tet A); [10]): +
MIC/MLC chart: growth or killing (E. coli D1-299 (Tet A); analog .195 μg/ml + doxycycline 12.5 μg/ml): +
MIC/MLC chart: growth or killing (E. coli D1-299 (Tet A); analog .195 μg/ml + doxycycline 25.0 μg/ml): +
MIC/MLC chart: growth or killing (E. coli D1-299 (Tet A); [11]): +
MIC/MLC chart: growth or killing (E. coli D1-299 (Tet A); [12]): +
MIC/MLC chart: growth or killing (E. coli D1-299 (Tet A); analog .39 μg/ml + doxycycline 6.25 μg/ml): +
MIC/MLC chart: growth or killing (E. coli D1-299 (Tet A); analog .39 μg/ml + doxycycline 12.5 μg/ml): +
MIC/MLC chart: growth or killing (E. coli D1-299 (Tet A); analog .39 μg/ml + doxycycline 24.9 μg/ml): ↓
MIC/MLC chart: growth or killing (E. coli D1-299 (Tet A); analog .78 μg/ml + doxycycline 1.56 μg/ml): +
MIC/MLC chart: growth or killing (E. coli D1-299 (Tet A); analog .78 μg/ml + doxycycline 3.12 μg/ml): +
MIC/MLC chart: growth or killing (E. coli D1-299 (Tet A); analog .78 μg/ml + doxycycline 6.23 μg/ml): +
MIC/MLC chart: growth or killing (E. coli D1-299 (Tet A); analog .78 μg/ml + doxycycline 12.4 μg/ml): ◯
MIC/MLC chart: growth or killing (E. coli D1-299 (Tet A); analog alone 1.56 μg/ml (Analog Control)): +
MIC/MLC chart: growth or killing (E. coli D1-299 (Tet A); analog alone 3.12 μg/ml (Analog Control)): +
MIC/MLC chart: growth or killing (E. coli D1-299 (Tet A); analog alone 6.25 μg/ml (Analog Control)): +
MIC/MLC chart: growth or killing (E. coli D1-299 (Tet A); analog alone 12.5 μg/ml (Analog Control)): +
MIC/MLC chart: growth or killing (E. coli D1-299 (Tet A); analog alone 25.0 μg/ml (Analog Control)): +
MIC/MLC chart: growth or killing (E. coli D1-299 (Tet A); analog alone 50.00 μg/ml (Analog Control)): +
MIC/MLC chart: growth or killing (E. coli D1-299 (Tet A); [13]): +
MIC/MLC chart: growth or killing (E. coli D1-299 (Tet A); [14]): +
MIC/MLC chart: growth or killing (E. coli D1-299 (Tet A); analog alone .78 μg/ml (Analog Control)): +
MLC in combination (E. coli D1-299 (Tet A); with 5.9 μg/ml doxycycline (Chart 8A)): 6.25 µg/mL
MIC/MLC chart: growth or killing (E. faecalis 211 (Tet M); [8]): +
MIC/MLC chart: growth or killing (E. faecalis 211 (Tet M); [9]): +
MIC/MLC chart: growth or killing (E. faecalis 211 (Tet M); [10]): +
MIC/MLC chart: growth or killing (E. faecalis 211 (Tet M); [11]): ◯
MIC/MLC chart: growth or killing (E. faecalis 211 (Tet M); [12]): ◯
MIC/MLC chart: growth or killing (E. faecalis 211 (Tet M); [13]): +
MIC/MLC chart: growth or killing (E. faecalis 211 (Tet M); [14]): ◯
